{"source": "patent US3960834A", "about": "“Method for preparing 3-(methylmercaptol) propylaminobleomycin” (priority 1973, dated 1976)", "key": {"[1]": {"tested_on": "ICR mouse bearing cancer", "experimental": "Mice of ICR/JCL strain (male 5 weeks old, five for one group) are inoculated with Ehrlich ascites carcinoma cells in a dose of 2 millions/mouse.\nLD50 is calculated by Behrens-Karber's method from the group poisoned at high dose levels."}, "[2]": {"tested_on": "Ehrlich ascites carcinoma cells", "conditions": "for Mean surviving days: intraperitoneally once a day for 10 days, observed up to 50 days; for ED50: Table 3, maximum dose level at which they survive 100 to 200% of the survival days for the control; for LD50 /ED50 = Index: mouse, in vivo, ip"}, "[3]": {"tested_on": "Mycobacterium smegmatis 607", "experiment": "antimicrobial activity against Mycobacterium smegmatis 607", "format": "cell-based"}, "[4]": {"experiment": "solubility", "format": "physicochemical"}, "[5]": {"tested_on": "Ehrlich ascites carcinoma cells", "experiment": "animal or person", "conditions": "Mus musculus, ip"}, "[6]": {"conditions": "ICR mouse bearing cancer, daily intraperitoneal administration for 10 days"}, "[7]": {"conditions": "Table 3, Behrens-Karber's method, from the group poisoned at high dose levels"}}, "note": "Read-outs that look alike come from different tables or passages of the source."}
{"compound": "3-(S,S-dimethylmercapto)propylaminobleomycin [Bleomycin A2, reference compound]", "values": [{"measurement": "LD50", "setting": "[1]; [6]", "result": 12.5, "unit": "mg/kg"}, {"measurement": "LD50", "setting": "[1]; [7]", "result": 9.4}, {"measurement": "Mean surviving days", "setting": "[2]; 0.19 mg/kg", "result": 13.6, "unit": "days"}, {"measurement": "Mean surviving days", "setting": "[2]; 0.39 mg/kg", "result": 15.4, "unit": "days"}, {"measurement": "Mean surviving days", "setting": "[2]; 0.78 mg/kg", "result": 17.2, "unit": "days"}, {"measurement": "Mean surviving days", "setting": "[2]; 1.56 mg/kg", "result": "> 33", "unit": "days"}, {"measurement": "Mean surviving days", "setting": "[2]; 3.12 mg/kg", "result": "> 36", "unit": "days"}, {"measurement": "Mean surviving days", "setting": "[2]; 6.25 mg/kg", "result": "> 28.4", "unit": "days"}, {"measurement": "Mean surviving days", "setting": "[2]; 12.5 mg/kg", "result": 25, "unit": "days"}, {"measurement": "Mean surviving days", "setting": "[2]; 25 mg/kg", "result": 10.8, "unit": "days"}, {"measurement": "ED50", "setting": "[2]", "result": 0.78}, {"measurement": "LD50 /ED50 = Index", "setting": "[2]", "result": 12}, {"measurement": "antimicrobial activity (potency)", "setting": "[3]", "result": 1000, "unit": "mcg potency/mg"}]}
{"compound": "CSCCCNC(=O)c1csc(-c2csc(CCNC(=O)[C@@H](NC(=O)[C@@H](C)[C@H](O)[C@@H](C)NC(=O)[C@@H](NC(=O)c3nc([C@H](CC(N)=O)NC[C@H](N)C(N)=O)nc(N)c3C)[C@@H](O[C@@H]3O[C@@H](CO)[C@@H](O)[C@H](O)[C@@H]3O[C@H]3O[C@H](CO)[C@@H](O)[C@H](OC(N)=O)[C@@H]3O)c3cnc[nH]3)[C@@H](C)O)n2)n1", "note": "[Demethylbleomycin A2, 3-(methylmercapto)propylaminobleomycin]", "values": [{"measurement": "solubility in organic solvents", "setting": "[4]; ethanol, propanol, butanol, ethyl acetate, ether, acetone, petroleum ether, benzene, and toluene", "result": "insoluble"}, {"measurement": "solubility in water and methanol", "setting": "[4]; water and methanol", "result": "soluble"}, {"measurement": "LD50", "setting": "[1]; [6]", "result": 22.5, "unit": "mg/kg"}, {"measurement": "LD50", "setting": "[1]; [7]", "result": 18.0}, {"measurement": "toxicity compared with bleomycin A2", "setting": "[1]; from LD50, ICR mouse bearing cancer, daily intraperitoneal for 10 days", "result": "decreased to about half as much"}, {"measurement": "Mean surviving days", "setting": "[2]; 0.19 mg/kg", "result": 20.2, "unit": "days"}, {"measurement": "Mean surviving days", "setting": "[2]; 0.39 mg/kg", "result": 24.0, "unit": "days"}, {"measurement": "Mean surviving days", "setting": "[2]; 0.78 mg/kg", "result": 31.2, "unit": "days"}, {"measurement": "Mean surviving days", "setting": "[2]; 1.56 mg/kg", "result": 28.6, "unit": "days"}, {"measurement": "Mean surviving days", "setting": "[2]; 3.12 mg/kg", "result": 34.6, "unit": "days"}, {"measurement": "Mean surviving days", "setting": "[2]; 6.25 mg/kg", "result": 49, "unit": "days"}, {"measurement": "Mean surviving days", "setting": "[2]; 12.5 mg/kg", "result": 40.5, "unit": "days"}, {"measurement": "Mean surviving days", "setting": "[2]; 25 mg/kg", "result": 29.0, "unit": "days"}, {"measurement": "ED50", "setting": "[2]", "result": 0.78}, {"measurement": "LD50 /ED50 = Index", "setting": "[2]", "result": 23}, {"measurement": "antimicrobial activity (potency)", "setting": "[3]", "result": "2,458 mcg potency/mg"}]}
{"compound": "CO[C@@]12[C@H](COC(N)=O)C3=C(C(=O)C(C)=C(N)C3=O)N1C[C@@H]1N[C@@H]12", "note": "[Mitomycin C]", "values": [{"measurement": "ED50", "setting": "[5]", "result": 0.39, "unit": "mg/kg"}]}
